Laboratory results published in ChEMBL document CHEMBL5543119, “Discovery of Novel 11-Membered Templates as Squalene Synthase Inhibitors” (J Med Chem, 2024).

System: Hamster
Test: Lipid lowering effect in hamster assessed as reduction in total cholesterol level in serum at 100 mg/kg, po bid administered at 9 a.m and 4 p.m for 14 days relative to control
Type: functional, Cricetinae
Parameters: scale not given: the % may be the effect or the level left
Settings: time 14 day
Molecule `COc1cccc([C@H]2O[C@H](CC(=O)N3CCC(CC(=O)O)CC3)C(=O)N(CC(C)(C)CO)c3ccc(Cl)cc32)c1OC` has an Activity of 2%.

System: marmosets
Test: Lipid lowering effect in chow diet fed marmosets assessed as reduction in total cholesterol level in serum at 10 mg/kg, po qd administered once a day to 9 to 10 a.m for 7 days relative to control
Type: functional, Callitrichinae sp.
Parameters: scale not given: the % may be the effect or the level left
Settings: time 7 day
For `COc1cccc([C@H]2O[C@H](CC(=O)N3CCC(CC(=O)O)CC3)C(=O)N(CC(C)(C)CO)c3ccc(Cl)cc32)c1OC`, the Activity was 24%.

Target: T1, Squalene synthase (Rattus norvegicus, UniProt Q02769)
T1 sequence (Q02769 whole entry): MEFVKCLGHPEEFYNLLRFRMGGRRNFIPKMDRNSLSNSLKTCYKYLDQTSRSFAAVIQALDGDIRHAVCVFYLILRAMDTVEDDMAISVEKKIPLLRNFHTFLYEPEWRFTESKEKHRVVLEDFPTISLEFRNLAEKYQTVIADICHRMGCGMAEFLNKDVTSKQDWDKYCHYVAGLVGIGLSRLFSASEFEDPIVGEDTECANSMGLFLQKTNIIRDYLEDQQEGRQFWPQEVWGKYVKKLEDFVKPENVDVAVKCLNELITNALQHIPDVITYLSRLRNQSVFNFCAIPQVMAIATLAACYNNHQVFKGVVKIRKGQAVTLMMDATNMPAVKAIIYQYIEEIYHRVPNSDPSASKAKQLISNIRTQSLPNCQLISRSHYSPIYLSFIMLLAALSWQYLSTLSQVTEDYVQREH
Test: Inhibition of squalene synthase in rat liver microsomes using [3H] farnesyl pyrophosphate as substrate preincubated for 10 mins followed by substrate addition and measured after 30 mins by liquid scintillation counter analysis
Parameters: species or system Microsome
Settings: not given
`COc1ccccc1C1OCCCN(C(=O)C(=O)O)CC(=O)N(CC(C)(C)C)c2ccc(Cl)cc21` (centres undefined) gave an IC50 of at least 260 nM.
In the case of `COc1ccccc1C1OCCN([C@H]2CC[C@@H](C(=O)O)CC2)C(=O)CC(=O)N(CC(C)(C)C)c2ccc(Cl)cc21` (some centres undefined), the IC50 is reported as 450 nM.
In the case of `COc1ccccc1C1OCCN([C@H]2CC[C@H](C(=O)O)CC2)C(=O)CC(=O)N(CC(C)(C)C)c2ccc(Cl)cc21` (some centres undefined), the IC50 is reported as 23 nM.
For `CCOC(=O)C1CCC(N2CCOC(c3ccccc3OC)c3cc(Cl)ccc3N(CC(C)(C)C)C(=O)CC2=O)CC1` (centres undefined), the IC50 was 30 nM.
For `CCOC(=O)C1CCN(C(=O)CN2CC(=O)N(CC(C)(C)C)c3ccc(Cl)cc3C(c3ccccc3OC)OCCC2=O)CC1` (centres undefined), the IC50 was over 600 nM.
With `COc1ccccc1C1OCCN([C@H]2CCC[C@H](C(=O)O)C2)C(=O)CC(=O)N(CC(C)(C)C)c2ccc(Cl)cc21` (some centres undefined) the IC50 was over 600 nM.
In the case of `CCOC(=O)C1CCCN(C(=O)N2CCCOC(c3ccccc3OC)c3cc(Cl)ccc3N(CC(C)(C)C)C(=O)C2)C1` (centres undefined), the IC50 is reported as over 600 nM.
For `COc1ccccc1C1OCCN(CC(=O)N2CCC(C(=O)O)CC2)C(=O)CC(=O)N(CC(C)(C)C)c2ccc(Cl)cc21` (centres undefined), the IC50 was over 600 nM.
Molecule `CCOC(=O)[C@H]1CC[C@H](N2CCOC(c3ccccc3OC)c3cc(Cl)ccc3N(CC(C)(C)C)C(=O)CC2=O)CC1` (some centres undefined) has an IC50 of 16 nM.
For `CCOC(=O)[C@@H]1CCC[C@H](N2CCOC(c3ccccc3OC)c3cc(Cl)ccc3N(CC(C)(C)C)C(=O)CC2=O)C1` (some centres undefined), the IC50 was 17 nM.
In the case of `COc1ccccc1[C@@H]1OCCCN(C(=O)N2CCC(CC(=O)O)CC2)CC(=O)N(CC(C)(C)C)c2ccc(Cl)cc21`, the IC50 is reported as 1400 nM.
Work on `CCOC(=O)C1CCCN(C(=O)CN2CCOC(c3ccccc3OC)c3cc(Cl)ccc3N(CC(C)(C)C)C(=O)CC2=O)C1` (centres undefined) yielded an IC50 of 64 nM.
Molecule `COc1ccccc1C1OCCN(CC(=O)N2CCCC(C(=O)O)C2)C(=O)CC(=O)N(CC(C)(C)C)c2ccc(Cl)cc21` (centres undefined) has an IC50 of over 600 nM.
In the case of `COc1ccccc1C1OCCC(=O)N(CC(=O)O)CC(=O)N(CC(C)(C)C)c2ccc(Cl)cc21` (centres undefined), the IC50 is reported as over 600 nM.
`COc1ccccc1C1OCCNCCC(=O)N(CC(C)(C)C)c2ccc(Cl)cc21` (centres undefined) showed an IC50 of over 600 nM.
`COc1ccccc1C1OCCN([C@@H]2CCC[C@H](C(=O)O)C2)C(=O)CC(=O)N(CC(C)(C)C)c2ccc(Cl)cc21` (some centres undefined) gave an IC50 of 4.7 nM.
For `CCOC(=O)C1CCCN(C(=O)CN2CC(=O)N(CC(C)(C)C)c3ccc(Cl)cc3C(c3ccccc3OC)OCCC2=O)C1` (centres undefined), the IC50 was over 600 nM.
`COc1ccccc1C1OCCC(=O)N(CC(=O)N2CCCC(C(=O)O)C2)CC(=O)N(CC(C)(C)C)c2ccc(Cl)cc21` (centres undefined) gave an IC50 of over 600 nM.
With `COc1ccccc1C1OCCN(C(=O)C(=O)O)CCC(=O)N(CC(C)(C)C)c2ccc(Cl)cc21` (centres undefined) the IC50 was over 600 nM.
With `COc1ccccc1C1OCCCNCC(=O)N(CC(C)(C)C)c2ccc(Cl)cc21` (centres undefined) the IC50 was over 600 nM.
With `CCOC(=O)[C@@H]1CCC[C@@H](N2CCOC(c3ccccc3OC)c3cc(Cl)ccc3N(CC(C)(C)C)C(=O)CC2=O)C1` (some centres undefined) the IC50 was 19 nM.
With `COc1ccccc1C1OCCCN(C(=O)N2CCC(C(=O)O)CC2)CC(=O)N(CC(C)(C)C)c2ccc(Cl)cc21` (centres undefined) the IC50 was 12 nM.
For `COc1ccccc1C1OCCN([C@@H]2CCC[C@@H](C(=O)O)C2)C(=O)CC(=O)N(CC(C)(C)C)c2ccc(Cl)cc21` (some centres undefined), the IC50 was 4 nM.
For `COc1ccccc1C1OCCN(CC(=O)O)C(=O)CC(=O)N(CC(C)(C)C)c2ccc(Cl)cc21` (centres undefined), the IC50 was over 600 nM.
For `COc1ccccc1C1OCCN(C2CCCN(C(=O)C(=O)O)C2)C(=O)CC(=O)N(CC(C)(C)C)c2ccc(Cl)cc21` (centres undefined), the IC50 was 21 nM.
For `COc1ccccc1C1OCCN(C(=O)C(F)(F)F)CCC(=O)N(CC(C)(C)C)c2ccc(Cl)cc21` (centres undefined), the IC50 was over 600 nM.
`CCOC(=O)C(=O)N1CCCOC(c2ccccc2OC)c2cc(Cl)ccc2N(CC(C)(C)C)C(=O)C1` (centres undefined) showed an IC50 of over 600 nM.
With `CCOC(=O)C(=O)N1CCC(N2CCOC(c3ccccc3OC)c3cc(Cl)ccc3N(CC(C)(C)C)C(=O)CC2=O)CC1` (centres undefined) the IC50 was 25 nM.
For `COc1ccccc1C1OCCCN(C(=O)N2CCCC(C(=O)O)C2)CC(=O)N(CC(C)(C)C)c2ccc(Cl)cc21` (centres undefined), the IC50 was 170 nM.
`COc1ccccc1C1OCCCN(S(=O)(=O)c2ccccc2[N+](=O)[O-])CC(=O)N(CC(C)(C)C)c2ccc(Cl)cc21` (centres undefined) showed an IC50 of over 600 nM.
`CCOC(=O)C1CCN(C(=O)N2CCCOC(c3ccccc3OC)c3cc(Cl)ccc3N(CC(C)(C)C)C(=O)C2)CC1` (centres undefined) gave an IC50 of 47 nM.
With `COc1ccccc1C1OCC(=O)NCCC(=O)N(CC(C)(C)C)c2ccc(Cl)cc21` (centres undefined) the IC50 was over 600 nM.
`CCOC(=O)[C@H]1CCC[C@@H](N2CCOC(c3ccccc3OC)c3cc(Cl)ccc3N(CC(C)(C)C)C(=O)CC2=O)C1` (some centres undefined) gave an IC50 of 18 nM.
For `CCOC(=O)C1CCN(C(=O)CN2CCOC(c3ccccc3OC)c3cc(Cl)ccc3N(CC(C)(C)C)C(=O)CC2=O)CC1` (centres undefined), the IC50 was 390 nM.
For `COc1ccccc1C1OCCN(C2CCC(C(=O)O)CC2)C(=O)CC(=O)N(CC(C)(C)C)c2ccc(Cl)cc21` (centres undefined), the IC50 was 46 nM.
`CCOC(=O)[C@H]1CC[C@@H](N2CCOC(c3ccccc3OC)c3cc(Cl)ccc3N(CC(C)(C)C)C(=O)CC2=O)CC1` (some centres undefined) gave an IC50 of 26 nM.
`COc1ccccc1C1OCCC(=O)N(CC(=O)N2CCC(C(=O)O)CC2)CC(=O)N(CC(C)(C)C)c2ccc(Cl)cc21` (centres undefined) showed an IC50 of over 600 nM.
`CCOC(=O)C(=O)N1CCCC(N2CCOC(c3ccccc3OC)c3cc(Cl)ccc3N(CC(C)(C)C)C(=O)CC2=O)C1` (centres undefined) showed an IC50 of 14 nM.
For `CCOC(=O)[C@H]1CCC[C@H](N2CCOC(c3ccccc3OC)c3cc(Cl)ccc3N(CC(C)(C)C)C(=O)CC2=O)C1` (some centres undefined), the IC50 was 54 nM.
With `COc1ccccc1C1OCC(=O)N(CC(=O)O)CCC(=O)N(CC(C)(C)C)c2ccc(Cl)cc21` (centres undefined) the IC50 was over 600 nM.
With `CCOC(=O)CC1CCN(C(=O)N2CCCOC(c3ccccc3OC)c3cc(Cl)ccc3N(CC(C)(C)C)C(=O)C2)CC1` (centres undefined) the IC50 was 20 nM.
With `COc1ccccc1[C@H]1OCCCN(C(=O)N2CCC(CC(=O)O)CC2)CC(=O)N(CC(C)(C)C)c2ccc(Cl)cc21` the IC50 was 4.4 nM.
Molecule `COc1ccccc1[C@@H](O)c1cc(Cl)ccc1N(CC(C)(C)C)C(=O)CCC(=O)N1CCC[C@H](C(=O)O)C1` has an IC50 of 0.6 nM.
`COc1ccccc1C1OCCN(C2CCN(C(=O)C(=O)O)CC2)C(=O)CC(=O)N(CC(C)(C)C)c2ccc(Cl)cc21` (centres undefined) gave an IC50 of over 600 nM.
In the case of `CCOC(=O)CN1CCOC(c2ccccc2OC)c2cc(Cl)ccc2N(CC(C)(C)C)C(=O)CC1=O` (centres undefined), the IC50 is reported as 140 nM.
Work on `CCOC(=O)CN1CC(=O)N(CC(C)(C)C)c2ccc(Cl)cc2C(c2ccccc2OC)OCCC1=O` (centres undefined) yielded an IC50 of over 600 nM.
For `CCOC(=O)CN1CCC(=O)N(CC(C)(C)C)c2ccc(Cl)cc2C(c2ccccc2OC)OCC1=O` (centres undefined), the IC50 was over 600 nM.
For `COc1ccccc1C1OCCN([C@H]2CCC[C@@H](C(=O)O)C2)C(=O)CC(=O)N(CC(C)(C)C)c2ccc(Cl)cc21` (some centres undefined), the IC50 was over 600 nM.
Work on `COc1ccccc1C1OCCCN(C(=O)N2CCC(CC(=O)O)CC2)CC(=O)N(CC(C)(C)C)c2ccc(Cl)cc21` (centres undefined) yielded an IC50 of 7 nM.
Work on `CCOC(=O)C(=O)N1CCOC(c2ccccc2OC)c2cc(Cl)ccc2N(CC(C)(C)C)C(=O)CC1` (centres undefined) yielded an IC50 of over 600 nM.

System: marmosets
Test: Lipid lowering effect in chow diet fed marmosets assessed as reduction in non-HDL level in serum at 10 mg/kg, po qd administered once a day to 9 to 10 a.m for 7 days relative to control
Type: functional, Callitrichinae sp.
Parameters: scale not given: the % may be the effect or the level left
Settings: time 7 day
Molecule `COc1cccc([C@H]2O[C@H](CC(=O)N3CCC(CC(=O)O)CC3)C(=O)N(CC(C)(C)CO)c3ccc(Cl)cc32)c1OC` has an Activity of 34%.

System: marmosets
Test: Lipid lowering effect in chow diet fed marmosets assessed as reduction in HDL level in serum at 10 mg/kg, po qd administered once a day to 9 to 10 a.m for 7 days relative to control
Type: functional, Callitrichinae sp.
Parameters: scale not given: the % may be the effect or the level left
Settings: time 7 day
Molecule `COc1cccc([C@H]2O[C@H](CC(=O)N3CCC(CC(=O)O)CC3)C(=O)N(CC(C)(C)CO)c3ccc(Cl)cc32)c1OC` has an Activity of 3%.

System: marmosets
Test: Lipid lowering effect in chow diet fed marmosets assessed as reduction in triglyceride level in serum at 10 mg/kg, po qd administered once a day to 9 to 10 a.m for 7 days relative to control
Type: functional, Callitrichinae sp.
Parameters: scale not given: the % may be the effect or the level left
Settings: time 7 day
`COc1cccc([C@H]2O[C@H](CC(=O)N3CCC(CC(=O)O)CC3)C(=O)N(CC(C)(C)CO)c3ccc(Cl)cc32)c1OC` showed an Activity of 38%.

System: not listed separately
Test: Effect on triglyceride level in hamster assessed as increase in triglyceride level in serum at 100 mg/kg, po bid administered at 9 a.m and 4 p.m for 14 days relative to control
Type: functional, Cricetinae
Settings: time 14 day
For `COc1cccc([C@H]2O[C@H](CC(=O)N3CCC(CC(=O)O)CC3)C(=O)N(CC(C)(C)CO)c3ccc(Cl)cc32)c1OC`, the Activity was 8%.

System: Hepatocyte
Test: Inhibition of cholesterol biosynthesis in rat hepatocytes preincubated for 1 hr followed by [14C]mevalonolactone addition and measured after 1 hr by liquid scintillation counter analysis
Type: functional, cell-based
Settings: not given
`COc1ccccc1[C@@H]1OCCCN(C(=O)N2CCC(CC(=O)O)CC2)CC(=O)N(CC(C)(C)C)c2ccc(Cl)cc21` gave an IC50 of over 3000 nM.
In the case of `COc1ccccc1[C@H]1OCCCN(C(=O)N2CCC(CC(=O)O)CC2)CC(=O)N(CC(C)(C)C)c2ccc(Cl)cc21`, the IC50 is reported as 120 nM.
Molecule `COc1ccccc1[C@@H](O)c1cc(Cl)ccc1N(CC(C)(C)C)C(=O)CCC(=O)N1CCC[C@H](C(=O)O)C1` has an IC50 of 120 nM.
